Assay results taken from US20260325533A1, “CDK INHIBITOR COMPOUNDS” (ALEKSIA THERAPEUTICS, INC., priority 2023, published 2026).
Where two headings read alike, the source gives them in different places.

Legend:
Format in all cases: biochemical
CDK1/CCNB1 = CDK1/CCNB1 (Homo sapiens, UniProt P06493); assay: CDK1 homogeneous time-resolved fluorescence (HTRF) kinase assay; conditions: CDK1/CCNB
How it was run: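 Kinase activity is measured as Lance signal (665 nm, or 665/615 nm ratio) from europium-labelled anti-phospho-Thr37/46 antibody binding ULight-4E-BP1 peptide. Reactions contain 0.5 nM enzyme, 1 mM ATP, 1% DMSO and run 60 min at 23 °C before EDTA quench.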

CDK2/CCNE1 = CDK2/CCNE1 (Homo sapiens, UniProt P24941); assay: CDK2 homogeneous time-resolved fluorescence (HTRF) kinase assay; conditions: CDK2/CCNE
How it was run: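 TR-FRET read-out (665 nm, or 665/615 ratio) of Eu-antibody detection of phospho-4E-BP1 (Thr37/46) ULight peptide. Enzyme 3 nM, ATP 1 mM, peptide 50 nM, 1% DMSO; 60 min reaction at 23 °C after 20 min compound preincubation. IC50 from 11-point half-log titrations, top typically 10 μM.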

CDK4/CCND3 = CDK4/CCND3 (Homo sapiens, UniProt P11802); assay: CDK4 homogeneous time-resolved fluorescence (HTRF) kinase assay; conditions: CDK4/CCND
CDK4/CCND3, sequence (P11802 whole entry): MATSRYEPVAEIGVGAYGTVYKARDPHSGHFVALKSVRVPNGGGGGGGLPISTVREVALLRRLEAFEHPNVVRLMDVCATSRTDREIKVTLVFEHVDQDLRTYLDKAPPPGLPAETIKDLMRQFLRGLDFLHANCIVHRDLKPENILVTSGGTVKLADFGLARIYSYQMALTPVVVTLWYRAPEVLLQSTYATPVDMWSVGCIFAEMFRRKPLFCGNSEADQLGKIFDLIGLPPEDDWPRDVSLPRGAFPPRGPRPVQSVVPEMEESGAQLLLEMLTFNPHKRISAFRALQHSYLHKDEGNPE
CDK4/CCND3, sequence (P30281 whole entry partner): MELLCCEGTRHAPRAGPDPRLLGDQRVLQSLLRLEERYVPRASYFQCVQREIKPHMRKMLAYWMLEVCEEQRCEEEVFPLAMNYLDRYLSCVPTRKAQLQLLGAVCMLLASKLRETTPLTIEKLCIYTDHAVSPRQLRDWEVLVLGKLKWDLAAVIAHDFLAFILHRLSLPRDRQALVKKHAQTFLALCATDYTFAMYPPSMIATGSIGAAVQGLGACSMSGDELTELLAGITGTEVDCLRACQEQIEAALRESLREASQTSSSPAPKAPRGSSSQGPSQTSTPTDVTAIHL
How it was run: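 TR-FRET read (665 nm, or 665/615 ratio) of 4E-BP1 Thr37/46 phosphorylation by 1.5 nM CDK4/CCND3 at 1 mM ATP, 50 nM ULight peptide, 1% DMSO. Reaction ran 60 min at 23 °C after 20 min compound–enzyme preincubation. IC50 from 11-point half-log dilutions, top 10 μM.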

CDK6/CCND1 = CDK6/CCND1 (Homo sapiens, UniProt Q00534); assay: CDK6 homogeneous time-resolved fluorescence (HTRF) kinase assay; conditions: CDK6/CCND
CDK6/CCND1, sequence (Q00534 whole entry): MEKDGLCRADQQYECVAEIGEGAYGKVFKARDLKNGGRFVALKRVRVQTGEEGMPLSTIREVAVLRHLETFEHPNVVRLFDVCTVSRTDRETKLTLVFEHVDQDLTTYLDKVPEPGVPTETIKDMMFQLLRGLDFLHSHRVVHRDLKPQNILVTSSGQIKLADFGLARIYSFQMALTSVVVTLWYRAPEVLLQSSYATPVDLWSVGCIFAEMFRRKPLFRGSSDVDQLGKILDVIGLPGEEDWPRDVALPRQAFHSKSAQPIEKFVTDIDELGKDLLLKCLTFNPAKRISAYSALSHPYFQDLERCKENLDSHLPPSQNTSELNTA
CDK6/CCND1, sequence (P24385 whole entry partner): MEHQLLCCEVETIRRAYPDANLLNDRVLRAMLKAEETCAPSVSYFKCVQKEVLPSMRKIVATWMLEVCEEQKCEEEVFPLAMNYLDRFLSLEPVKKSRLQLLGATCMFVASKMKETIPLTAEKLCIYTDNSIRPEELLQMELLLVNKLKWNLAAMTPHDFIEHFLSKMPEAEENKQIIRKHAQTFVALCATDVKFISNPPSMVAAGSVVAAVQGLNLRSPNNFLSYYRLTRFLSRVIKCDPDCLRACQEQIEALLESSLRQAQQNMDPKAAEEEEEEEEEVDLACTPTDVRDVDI
How it was run: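 Assay conditions: HEPES buffer containing 10 mM MgCl2, 1 mM EGTA, 2 mM DTT, 0.01% Tween 20; 1 nM CDK6/CCND1, 50 nM peptide substrate, 1 mM ATP. Detection after 60 min reaction used 2 nM europium antibody with 340 nm excitation. Potency fitted from half-log series, 11 points.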

[1] = >250 nM marked x, read-out: CDK1/CCNB IC50 >250 nM
[2] = 25-250 nM marked x, read-out: CDK2/CCNE IC50 25-250 nM
[3] = >250 nM marked x, read-out: CDK4/CCND IC50 >250 nM
[4] = >250 nM marked x, read-out: CDK6/CCND IC50 >250 nM
[5] = >250 nM marked x, read-out: CDK2/CCNE IC50 >250 nM
[6] = 25-250 nM marked x, read-out: CDK6/CCND IC50 25-250 nM
[7] = x = IC50 >250 nM, read-out: CDK1/CCNB IC50 (>250 nM column)
[8] = x = IC50 25-250 nM, read-out: CDK2/CCNE IC50 (25-250 nM)
[9] = x = IC50 >250 nM, read-out: CDK4/CCND IC50 (>250 nM column)
[10] = x = IC50 >250 nM, read-out: CDK6/CCND IC50 (>250 nM column)
[11] = x = IC50 <25 nM, read-out: CDK2/CCNE IC50 (<25 nM)
[12] = x = IC50 25-250 nM, read-out: CDK4/CCND IC50 (25-250 nM)
[13] = x = IC50 25-250 nM, read-out: CDK6/CCND IC50 (25-250 nM)

CDK1/CCNB1, sequence (P06493 whole entry): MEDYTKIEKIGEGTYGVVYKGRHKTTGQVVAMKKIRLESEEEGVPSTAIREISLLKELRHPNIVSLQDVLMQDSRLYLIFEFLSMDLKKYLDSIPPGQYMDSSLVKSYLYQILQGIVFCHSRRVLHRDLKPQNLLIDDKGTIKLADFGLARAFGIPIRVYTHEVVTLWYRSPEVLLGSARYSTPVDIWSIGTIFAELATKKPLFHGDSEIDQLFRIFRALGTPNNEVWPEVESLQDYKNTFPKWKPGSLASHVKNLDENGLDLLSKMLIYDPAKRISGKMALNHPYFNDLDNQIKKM
CDK1/CCNB1, sequence (P14635 whole entry partner): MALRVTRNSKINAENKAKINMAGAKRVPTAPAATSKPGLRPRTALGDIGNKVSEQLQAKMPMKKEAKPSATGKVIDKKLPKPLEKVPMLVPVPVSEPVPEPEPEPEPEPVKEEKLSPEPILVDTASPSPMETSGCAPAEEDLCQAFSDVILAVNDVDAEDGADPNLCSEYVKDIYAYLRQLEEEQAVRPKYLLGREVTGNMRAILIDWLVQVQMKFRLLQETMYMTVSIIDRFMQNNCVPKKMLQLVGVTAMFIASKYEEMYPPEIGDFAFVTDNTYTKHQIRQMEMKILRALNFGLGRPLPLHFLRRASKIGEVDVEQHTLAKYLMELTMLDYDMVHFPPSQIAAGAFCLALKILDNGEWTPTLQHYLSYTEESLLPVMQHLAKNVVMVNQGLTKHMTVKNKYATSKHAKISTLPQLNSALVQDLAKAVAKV

| SMILES | IC50 (CDK1/CCNB1; [1]) | IC50 (CDK4/CCND3; [3]) | IC50 (CDK6/CCND1; [4]) | IC50 (CDK2/CCNE1; [5]) | other results |
| --- | --- | --- | --- | --- | --- |
| O=S(=O)(CCO)c1ccc(Nc2cc3c(N4CCC(O)C4)nccc3cn2)cc1 (racemic) [Ex 221, 1-(7-((4-((2-hydroxyethyl)sulfonyl)phenyl)amino)-2,6-naphthyridin-1-yl)pyrrolidin-3-ol] | > 250 nM | > 250 nM | > 250 nM | – | IC50 (CDK2/CCNE1; [2]): 25 to 250 nM |
| CN1CCC(c2nccc3cnc(Nc4ccc(S(C)(=O)=O)cc4)cc23)C1 (racemic) [Ex 229, 5-(1-methylpyrrolidin-3-yl)-N-(4-(methylsulfonyl)phenyl)-2,6-naphthyridin-3-amine] | > 250 nM | > 250 nM | > 250 nM | > 250 nM | – |
| CS(=O)(=O)c1ccc(Nc2cc3c(C4CCN(Cc5ccccc5)C4)nccc3cn2)cc1 (racemic) [Ex 230, 5-(1-benzylpyrrolidin-3-yl)-N-(4-(methylsulfonyl)phenyl)-2,6-naphthyridin-3-amine] | > 250 nM | > 250 nM | > 250 nM | > 250 nM | – |
| COc1ccc(CN2CCC(c3nccc4cnc(Nc5ccc(S(C)(=O)=O)cc5)cc34)C2)cc1 (racemic) [Ex 231, 5-(1-(4-methoxybenzyl)pyrrolidin-3-yl)-N-(4-(methylsulfonyl)phenyl)-2,6-naphthyridin-3-amine] | > 250 nM | > 250 nM | > 250 nM | > 250 nM | – |
| CS(=O)(=O)c1ccc(Nc2cc3c(C4CCN(Cc5cccnc5)C4)nccc3cn2)cc1 (racemic) [Ex 232, N-(4-(methylsulfonyl)phenyl)-5-(1-(pyridin-3-ylmethyl)pyrrolidin-3-yl)-2,6-naphthyridin-3-amine] | > 250 nM | > 250 nM | > 250 nM | > 250 nM | – |
| CS(=O)(=O)c1ccc(Nc2cc3c(C4CCN(Cc5ccc(Cl)cc5)C4)nccc3cn2)cc1 (racemic) [Ex 233, 5-(1-(4-chlorobenzyl)pyrrolidin-3-yl)-N-(4-(methylsulfonyl)phenyl)-2,6-naphthyridin-3-amine] | > 250 nM | > 250 nM | > 250 nM | – | IC50 (CDK2/CCNE1; [2]): 25 to 250 nM |
| CCC(=O)N1CCC(c2nccc3cnc(Nc4ccc(S(C)(=O)=O)cc4)cc23)C1 (racemic) [Ex 234, 1-(3-(7-((4-(methylsulfonyl)phenyl)amino)-2,6-naphthyridin-1-yl)pyrrolidin-1-yl)propan-1-one] | > 250 nM | > 250 nM | > 250 nM | > 250 nM | – |
| CS(=O)(=O)c1ccc(Nc2cc3c(C4CCN(S(C)(=O)=O)C4)nccc3cn2)cc1 (racemic) [Ex 235, N-(4-(methylsulfonyl)phenyl)-5-(1-(methylsulfonyl)pyrrolidin-3-yl)-2,6-naphthyridin-3-amine] | > 250 nM | > 250 nM | > 250 nM | > 250 nM | – |
| CC(C)S(=O)(=O)N1CCC(c2nccc3cnc(Nc4ccc(S(C)(=O)=O)cc4)cc23)C1 (racemic) [Ex 236, 5-(1-(isopropylsulfonyl)pyrrolidin-3-yl)-N-(4-(methylsulfonyl)phenyl)-2,6-naphthyridin-3-amine] | > 250 nM | > 250 nM | > 250 nM | > 250 nM | – |
| C=CCS(=O)(=O)N1CCC(c2nccc3cnc(Nc4ccc(S(C)(=O)=O)cc4)cc23)C1 (racemic) [Ex 237, 5-(1-(allylsulfonyl)pyrrolidin-3-yl)-N-(4-(methylsulfonyl)phenyl)-2,6-naphthyridin-3-amine] | > 250 nM | > 250 nM | > 250 nM | > 250 nM | – |
| CS(=O)(=O)c1ccc(Nc2cc3c(C4CCN(S(=O)(=O)c5cccnc5)C4)nccc3cn2)cc1 (racemic) [Ex 238, N-(4-(methylsulfonyl)phenyl)-5-(1-(pyridin-3-ylsulfonyl)pyrrolidin-3-yl)-2,6-naphthyridin-3-amine] | > 250 nM | > 250 nM | > 250 nM | > 250 nM | – |
| CS(=O)(=O)c1ccc(Nc2cc3c(C4CCN(S(=O)(=O)C5CC5)C4)nccc3cn2)cc1 (racemic) [Ex 239, 5-(1-(cyclopropylsulfonyl)pyrrolidin-3-yl)-N-(4-(methylsulfonyl)phenyl)-2,6-naphthyridin-3-amine] | > 250 nM | > 250 nM | > 250 nM | > 250 nM | – |
| CS(=O)(=O)c1ccc(Nc2cc3c(C4=CC(O)CCC4)nccc3cn2)cc1 (racemic) [Ex 240, 3-(7-((4-(methylsulfonyl)phenyl)amino)-2,6-naphthyridin-1-yl)cyclohex-2-en-1-ol] | > 250 nM | > 250 nM | – | – | IC50 (CDK2/CCNE1; [2]): 25 to 250 nM; IC50 (CDK6/CCND1; [6]): 25 to 250 nM |
| CS(=O)(=O)c1ccc(Nc2cc3c(C#CC4CCC(C#N)CC4)nccc3cn2)cc1 (racemic) [Ex 252, 4-((7-((4-(methylsulfonyl)phenyl)amino)-2,6-naphthyridin-1-yl)ethynyl)cyclohexane-1-carbonitrile] | > 250 nM | – | – | – | IC50 (CDK2/CCNE1; <25 nM, read-out: CDK2/CCNE IC50 <25 nM): < 25 nM; IC50 (CDK4/CCND3; 25-250 nM marked x, read-out: CDK4/CCND IC50 25-250 nM): 25 to 250 nM; IC50 (CDK6/CCND1; [6]): 25 to 250 nM |
| N=S(=O)(c1ccc(Nc2cc3c(C#Cc4cccnc4N)nccc3cn2)cc1)C1CCC1 (racemic) [Ex 416, (4-((5-((2-aminopyridin-3-yl)ethynyl)-2,6-naphthyridin-3-yl)amino)phenyl)(cyclobutyl)(imino)-l6-sulfanone] | – | – | – | – | IC50 (CDK1/CCNB1; [7]): > 250 nM; IC50 (CDK2/CCNE1; [8]): 25 to 250 nM; IC50 (CDK4/CCND3; [9]): > 250 nM; IC50 (CDK6/CCND1; [10]): > 250 nM |
| CN=S(C)(=O)c1ccc(Nc2cc3c(-c4ccc5c(cnn5CC(O)(C(F)(F)F)C(F)(F)F)c4C)nccc3cn2)cc1 (racemic) [Ex 470, methyl(4-((5-(4-methyl-1-(3,3,3-trifluoro-2-hydroxy-2-(trifluoromethyl)propyl)-1H-indazol-5-yl)-2,6-naphthyridin-3-yl)amino)phenyl)(methylimino)-l6-sulfanone] | – | – | – | – | IC50 (CDK1/CCNB1; [7]): > 250 nM; IC50 (CDK2/CCNE1; [8]): 25 to 250 nM; IC50 (CDK4/CCND3; [9]): > 250 nM; IC50 (CDK6/CCND1; [10]): > 250 nM |
| CCS(=N)(=O)c1ccc(Nc2cc3c(-c4ccc5c(cnn5CC(O)(C(F)(F)F)C(F)(F)F)c4C)nccc3cn2)cc1 (racemic) [Ex 473, ethyl(imino)(4-((5-(4-methyl-1-(3,3,3-trifluoro-2-hydroxy-2-(trifluoromethyl)propyl)-1H-indazol-5-yl)-2,6-naphthyridin-3-yl)amino)phenyl)-l6-sulfanone] | – | – | – | – | IC50 (CDK1/CCNB1; [7]): > 250 nM; IC50 (CDK2/CCNE1; [11]): < 25 nM; IC50 (CDK4/CCND3; [12]): 25 to 250 nM; IC50 (CDK6/CCND1; [13]): 25 to 250 nM |
| CS(=O)(=O)c1ccc(Nc2cc3c(C#CC(O)CO)nccc3cn2)cc1 (racemic) [Ex 477, 4-(7-((4-(methylsulfonyl)phenyl)amino)-2,6-naphthyridin-1-yl)but-3-yne-1,2-diol] | – | – | – | – | IC50 (CDK1/CCNB1; [7]): > 250 nM; IC50 (CDK2/CCNE1; [11]): < 25 nM; IC50 (CDK4/CCND3; [9]): > 250 nM; IC50 (CDK6/CCND1; [10]): > 250 nM |
| CCS(=N)(=O)c1ccc(Nc2cc3c(C#Cc4ccc5oc(=O)[nH]c5c4)nccc3cn2)cc1 (racemic) [Ex 479, 5-((7-((4-(ethylsulfonimidoyl)phenyl)amino)-2,6-naphthyridin-1-yl)ethynyl)benzo[d]oxazol-2(3H)-one] | – | – | – | – | IC50 (CDK1/CCNB1; x = IC50 25-250 nM, read-out: CDK1/CCNB IC50 (25-250 nM)): 25 to 250 nM; IC50 (CDK2/CCNE1; [11]): < 25 nM; IC50 (CDK4/CCND3; [12]): 25 to 250 nM; IC50 (CDK6/CCND1; [13]): 25 to 250 nM |
| CCS(=N)(=O)c1ccc(Nc2cc3c(C#Cc4ccc(=O)[nH]n4)nccc3cn2)cc1 (racemic) [Ex 485, 6-((7-((4-(ethylsulfonimidoyl)phenyl)amino)-2,6-naphthyridin-1-yl)ethynyl)pyridazin-3(2H)-one] | – | – | – | – | IC50 (CDK1/CCNB1; [7]): > 250 nM; IC50 (CDK2/CCNE1; [11]): < 25 nM; IC50 (CDK4/CCND3; [9]): > 250 nM; IC50 (CDK6/CCND1; [10]): > 250 nM |
| CCS(=N)(=O)c1ccc(Nc2cc3c(C#Cc4cccnc4N)nccc3cn2)cc1 (racemic) [Ex 489, (4-((5-((2-aminopyridin-3-yl)ethynyl)-2,6-naphthyridin-3-yl)amino)phenyl)(ethyl)(imino)-l6-sulfanone] | – | – | – | – | IC50 (CDK1/CCNB1; [7]): > 250 nM; IC50 (CDK2/CCNE1; [8]): 25 to 250 nM; IC50 (CDK4/CCND3; [9]): > 250 nM; IC50 (CDK6/CCND1; [10]): > 250 nM |
